In paper PMC6213970, “Identification of Enolase as the Target of 2-Aminothiazoles in Mycobacterium tuberculosis” (Frontiers in Microbiology, 2018):

Molecular target: T1, human α-enolase (Homo sapiens, UniProt P06733)
T1 construct: gene ENO1; commercial enzyme (Sigma)
Experiment: pyruvate kinase-luciferase coupled assay (luminescence)
Format: biochemical
Details: 100 μM compound; 2-PG 0.2 mM (figure legend) or 0.5 mM (methods); 1 mM ADP, 10 mM MgSO4, 50 mM HEPES pH 7.0, 37°C, 1% DMSO

T1 sequence (P06733 2-434): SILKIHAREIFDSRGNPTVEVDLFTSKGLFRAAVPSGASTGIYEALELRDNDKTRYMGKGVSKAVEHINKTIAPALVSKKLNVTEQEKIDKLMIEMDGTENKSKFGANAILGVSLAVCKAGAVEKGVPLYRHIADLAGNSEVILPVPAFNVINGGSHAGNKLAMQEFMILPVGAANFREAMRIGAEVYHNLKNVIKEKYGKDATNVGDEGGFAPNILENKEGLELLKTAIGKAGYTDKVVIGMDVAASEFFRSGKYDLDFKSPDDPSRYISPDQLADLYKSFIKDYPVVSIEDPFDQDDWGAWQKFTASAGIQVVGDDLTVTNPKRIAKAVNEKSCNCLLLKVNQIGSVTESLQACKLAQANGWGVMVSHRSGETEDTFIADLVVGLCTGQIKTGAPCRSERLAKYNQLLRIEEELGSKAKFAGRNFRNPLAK

IDR-0106963
% inhibition at 100 μM: > 90%
